# How the values were obtained:
# Conditions in all cases: 250 g/ha, evaluated after 13 days, five-point scale
# [1] = tested on: Amaranthus retoflexus (AMARE); test: Post-emergence herbicidal glasshouse test; format: in vivo
# AMAPA [2] = test: Post-emergence herbicidal glasshouse test; format: in vivo, Amaranthus tuberculatus
# [3] = tested on: Echinochloa crus-galli (ECHCG); test: Post-emergence herbicidal glasshouse test; format: in vivo
# [4] = tested on: Ipomoea hederacea (IPOHE); test: Post-emergence herbicidal glasshouse test; format: in vivo
# Setaria faberi (SETFA) [5] = test: Post-emergence herbicidal glasshouse test; format: in vivo
# [6] = tested on: Amaranthus retoflexus (AMARE); test: Pre-emergence herbicidal glasshouse test; format: in vivo
# AMAPA [7] = test: Pre-emergence herbicidal glasshouse test; format: in vivo, Amaranthus tuberculatus
# [8] = tested on: Echinochloa crus-galli (ECHCG); test: Pre-emergence herbicidal glasshouse test; format: in vivo
# [9] = tested on: Ipomoea hederacea (IPOHE); test: Pre-emergence herbicidal glasshouse test; format: in vivo
# Setaria faberi (SETFA) [10] = test: Pre-emergence herbicidal glasshouse test; format: in vivo
SMILES,"percentage damage caused to the plant, AMARE [1]","percentage damage caused to the plant, AMAPA (AMAPA [2])","percentage damage caused to the plant, ECHCG [3]","percentage damage caused to the plant, IPOHE [4]","percentage damage caused to the plant, SETFA (Setaria faberi (SETFA) [5])","percentage damage caused to the plant, AMARE [6]","percentage damage caused to the plant, AMAPA (AMAPA [7])","percentage damage caused to the plant, ECHCG [8]","percentage damage caused to the plant, IPOHE [9]","percentage damage caused to the plant, SETFA (Setaria faberi (SETFA) [10])"
Cc1nc(C(F)(F)F)nc2c(C#N)ccc(Oc3ncc(Cl)cn3)c12 [Compound 1.064],1 (1=0-20%),1 (1=0-20%),1 (1=0-20%),1 (1=0-20%),1 (1=0-20%),1 (1=0-20%),1 (1=0-20%),1 (1=0-20%),1 (1=0-20%),1 (1=0-20%)
"FC(F)(F)c1ncc2c(Oc3ncc(Cl)cn3)cccc2n1 [Compound 1.002, 5-(5-chloropyrimidin-2-yl)oxy-2-(trifluoromethyl)quinazoline]",5 (5=81-100%),5 (5=81-100%),5 (5=81-100%),4 (4=61-80%),4 (4=61-80%),5 (5=81-100%),5 (5=81-100%),5 (5=81-100%),5 (5=81-100%),5 (5=81-100%)
Cc1cnc(Oc2cccc3nc(C(F)(F)F)ccc23)nc1 [Compound 1.040],4 (4=61-80%),4 (4=61-80%),4 (4=61-80%),5 (5=81-100%),4 (4=61-80%),5 (5=81-100%),5 (5=81-100%),5 (5=81-100%),5 (5=81-100%),5 (5=81-100%)
Fc1cc(Cl)cnc1Oc1cccc2nc(C(F)(F)F)ncc12 [Compound 1.006],2 (2=21-40%),1 (1=0-20%),1 (1=0-20%),2 (2=21-40%),1 (1=0-20%),1 (1=0-20%),1 (1=0-20%),1 (1=0-20%),1 (1=0-20%),1 (1=0-20%)
FC(F)(F)c1ncc2c(Oc3ncc(Br)cn3)cccc2n1 [Compound 1.005],4 (4=61-80%),5 (5=81-100%),4 (4=61-80%),4 (4=61-80%),4 (4=61-80%),5 (5=81-100%),5 (5=81-100%),3 (3=41-60%),3 (3=41-60%),4 (4=61-80%)
FC(F)(F)c1ncc2c(Oc3ncccn3)cccc2n1 [Compound 1.008],3 (3=41-60%),3 (3=41-60%),1 (1=0-20%),3 (3=41-60%),1 (1=0-20%),4 (4=61-80%),4 (4=61-80%),1 (1=0-20%),3 (3=41-60%),4 (4=61-80%)
Cc1cnc(Oc2cccc3nc(C(F)(F)F)ncc23)nc1 [Compound 1.004],3 (3=41-60%),4 (4=61-80%),3 (3=41-60%),4 (4=61-80%),4 (4=61-80%),5 (5=81-100%),4 (4=61-80%),5 (5=81-100%),4 (4=61-80%),4 (4=61-80%)
"Cc1nc(C(F)(F)F)nc2cccc(Oc3ncc(Cl)cn3)c12 [Compound 1.001, 5-(5-chloropyrimidin-2-yl)oxy-4-methyl-2-(trifluoromethyl)quinazoline]",5 (5=81-100%),5 (5=81-100%),3 (3=41-60%),2 (2=21-40%),4 (4=61-80%),5 (5=81-100%),5 (5=81-100%),3 (3=41-60%),5 (5=81-100%),3 (3=41-60%)
COc1ncc2c(Oc3ncc(Cl)cn3)cccc2n1 [Compound 1.016],4 (4=61-80%),5 (5=81-100%),1 (1=0-20%),2 (2=21-40%),1 (1=0-20%),5 (5=81-100%),5 (5=81-100%),3 (3=41-60%),4 (4=61-80%),3 (3=41-60%)
